Reference: patent US9365541B2, “Compounds for use in the treatment of parasitic diseases” (IRBM—SCIENCE PARK S.P.A., priority 2012, dated 2016)

What was measured:
[1] = target: T1, human HDAC1 (Homo sapiens, UniProt Q13547); assay: Homo sapiens HDAC1 inhibition assay (Fluor-de-Lys, enzymatic); assay type: biochemical; details: human HDAC enzymatic assay; read-out: hHDAC IC50
T1 construct: made in house; host or cells: HeLa (ATCC CCL-2), mammalian cells
Experimental: Biology Homo sapiens HDAC1 Inhibition Assay Overview:
The aim of the assay is to evaluate the inhibition of the deacetylase activity of human HDAC1. To such goal an acetylated substrate is added to the enzyme mix; the resulting enzymatic product is converted to a fluorescent molecule by the addition the enzyme trypsine (developer solution). Fluorescence intensity is inversely proportional to the rate of inhibition of the enzyme (as indicated in the material section below).
Reagents of the HDAC Fluorescent Activity Assay are purchased from Enzo Life Sciences (http://www.enzolifesciences.com/BML-AK500/fluor-de-lys-hdac-fluorometric-activity-assay-kit/) and feature the Fluor-de-Lys™ Substrate/Developer System.
c) Trichostatin A (TSA) Stock
TSA (Sigma-Aldrich, T8552) is provided as a 10 mM stock solution in 100% dimethylsulfoxide (DMSO).
Diluted Substrate Solution
The final concentration in the assay is 20 μM.
Diluted Developer Solution
2 μM [final] TSA to this solution increases its ability to stop the reaction.
The HDAC1 enzyme is diluted in assay buffer prior to each use from a fresh aliquot of enzyme.
The final concentration in the assay is 1-2 nM.
Test compounds should be prepared in 100% DMSO and transferred to the assay by a nano volume dispenser to reach the appropriate concentration and the appropriate DMSO concentration (0.25%) in the reaction.

[2] = system: Plasmodium falciparum 3D7; assay: P. falciparum growth inhibition assay (Pf-LDH); assay type: cell-based; details: Plasmodium falciparum, Erythrocyte; P. falciparum 3D7 infected erythrocytes, 72 h incubation, PfLDH readout
Experimental: Basic culture of Plasmodium falciparum 3D7 parasites (Malaria Research and Reference Reagent Resource Center (MR4), MR4 Number: MRA-102).
Starting with a culture with a parasitemia of about 10% (and 5% hematocrit), 0.5 ml of the culture is placed in a fresh 100 mm petri dish with 0.95 ml of fresh erythrocytes (50% hematocrit) and 8.55 ml of culture medium, giving a new starting parasitemia of 0.5%. The petri dish is then incubated at 37° C. in a humidified gas-tight plastic box flushed with a gas mixture consisting of 93% N2, 4% CO2, and 3% O2. The culture medium is changed daily. The supernatant is removed by gently tipping the dish without disturbing the settled cells and aspirating the medium with a Pasteur pipette connected to a vacuum pump. A small amount of the concentrated cells is taken to prepare a blood smear for determination of the parasitemia. Normally, the cultures are split twice a week. If the parasites are growing very slowly then fresh erythrocytes are added to the culture no later than after 7 days. The cultures are then split 1:2 if the parasitemia is lower than 0.5%. To avoid the necessity of daily medium change on weekends, a culture with a 2.5% hematocrit and 0.1-0.2% parasitemia is set up and can be left for 3 days without medium change.
Standard medium consists of RPMI 1640, supplemented with 25 mM HEPES, 24 mM NaHCO3, 0.36 mM hypoxanthine, 100 μg/ml Neomycin, 5 g/1 Albumax® II, and washed human red blood cells (rbcs) A+.
P. falciparum Growth Inhibition Assay (Pf-LDH)
Compounds of the invention were assessed for in vitro antimalarial activity against a cloroquine sensitive (3D7) strain of the malaria parasite Plasmodium falciparum, using a lactate dehydrogenase (PfLDH) assay.
EC50 Determination by Pf-LDH Assay
384 plates (where compounds to be tested are dispensed) with 25 μl of parasite inoculum (parasitemia: 0.25%, hematocrit: 2%) are incubated at 37° C. in an atmosphere of 4% CO2, 3% O2, 93% N2. After 72 h of incubation, plates are frozen at −70° C. overnight and thawed at room temperature for at least 4 h. To evaluate PfLDH activity, 70 μl of freshly made reaction mix (143 mM sodium L-lactate, 143 μM 3-acetyl pyridine adenine dinucleotide (APAD), 178.75 μM Nitro Blue tetrazolium chloride (NBT), 286 μg/ml diaphorase (2.83 U/ml), 0.7% Tween 20, 100 mM Tris-HCl pH 8.0) is dispensed using a Multidrop Combi dispenser. Plates are shaken to ensure mixing and absorbance at 650 nm is monitored in a plate reader after 10 min of incubation at room temperature.
Negative controls (0% Effect) are produced by addition of DMSO to the proper wells.
Positive controls (100% Effect) are produced by addition of 150 nM Artemisinin (Sigma-Aldrich, 361593)
After result normalization using positive and negative controls, compound potency is determined by fitting the following equation: % inh=Ymin+(Ymax−Ymin)/(1+(X/EC50)^slope)) Where: • Ymin=minimum percentage effect • Ymax=maximum percentage effect • EC50=the concentration of the compound at which 50% effect is reached • Slope=the slope of the curve calculated at the EC50 Histone Hyperacetylation and Immunodetection of Altered Histone Modifications Assay

T1 sequence (Q13547 whole entry): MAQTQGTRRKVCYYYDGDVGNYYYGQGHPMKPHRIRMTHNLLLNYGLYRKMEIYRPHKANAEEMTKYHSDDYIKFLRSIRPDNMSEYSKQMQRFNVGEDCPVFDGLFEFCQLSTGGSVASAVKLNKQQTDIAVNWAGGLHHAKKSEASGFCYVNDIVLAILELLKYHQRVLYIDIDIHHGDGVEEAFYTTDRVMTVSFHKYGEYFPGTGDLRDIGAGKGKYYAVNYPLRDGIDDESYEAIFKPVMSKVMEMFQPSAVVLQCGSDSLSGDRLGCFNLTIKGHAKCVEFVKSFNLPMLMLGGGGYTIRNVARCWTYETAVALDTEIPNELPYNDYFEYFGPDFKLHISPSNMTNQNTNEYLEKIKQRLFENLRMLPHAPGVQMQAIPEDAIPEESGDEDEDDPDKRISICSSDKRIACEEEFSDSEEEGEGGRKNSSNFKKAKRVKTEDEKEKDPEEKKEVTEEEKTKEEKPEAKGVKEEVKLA

SMILES | IC50 [1] [nM] | EC50 [2] [nM]
CCc1nc2ccccc2n1CCC(=O)N[C@@H](CCCCCC(=O)NC)c1ncc(-c2cc3ccccc3nc2OC)[nH]1 [Entry 8, (S)-7-(3-(2-ethyl-1H-benzo[d]imidazol-1-yl)propanamido)-7-(5-(2-methoxyquinolin-3-yl)-1H-imidazol-2-yl)-N-methylheptanamide] | < 1000 | 1000 to 5000
CNC(=O)CCCCC[C@H](NC(=O)c1cc(C)nn1C)c1ncc(-c2cc3ccccc3nc2OC)[nH]1 [Entry 9, (S)-N-(1-(5-(2-methoxyquinolin-3-yl)-1H-imidazol-2-yl)-7-(methylamino)-7-oxoheptyl)-1,3-dimethyl-1H-pyrazole-5-carboxamide] | < 1000 | 1000 to 5000
CNC(=O)CCCCC[C@H](NC(=O)c1cncs1)c1ncc(-c2ccc3cccnc3c2)[nH]1 [Entry 10] | > 5000 | 1000 to 5000
CNC(=O)CCCCC[C@H](NC(=O)Cn1cncn1)c1ncc(-c2ccc(-n3cccn3)cc2)[nH]1 [Entry 11, (S)-7-(2-(1H-1,2,4-triazol-1-yl)acetamido)-7-(5-(4-(1H-pyrazol-1-yl)phenyl)-1H-imidazol-2-yl)-N-methylheptanamide] | > 5000 | > 5000
CNC(=O)CCCCC[C@H](NC(=O)c1cnsc1)c1ncc(-c2ccc(-n3cccn3)cc2)[nH]1 [Entry 12, (S)-N-(1-(5-(4-(1H-pyrazol-1-yl)phenyl)-1H-imidazol-2-yl)-7-(methylamino)-7-oxoheptyl)isothiazole-4-carboxamide] | 1000 to 5000 | 1000 to 5000
CNC(=O)CCCCC[C@H](NC(=O)c1cccc2nc(C)c(C)nc12)c1ncc(-c2ccc3ccccc3c2)[nH]1 [Entry 13, (S)-2,3-dimethyl-N-(7-(methylamino)-1-(5-(naphthalen-2-yl)-1H-imidazol-2-yl)-7-oxo-heptyl)quinoxaline-5-carboxamide] | 1000 to 5000 | 1000 to 5000
CNC(=O)CCCCC[C@H](NC(=O)c1cncs1)c1ncc(-c2ccc3cc(OC)cnc3c2)[nH]1 [Entry 14] | 1000 to 5000 | 1000 to 5000
CNC(=O)CCCCC[C@H](NC(=O)Cc1cnc2ccccn12)c1ncc(-c2ccc3ccncc3c2)[nH]1 [Entry 15, (S)-7-(2-(imidazo[1,2-a]pyridin-3-yl)acetamido)-7-(5-(isoquinolin-7-yl)-1H-imidazol-2-yl)-N-methylheptanamide] | < 1000 | 1000 to 5000
CNC(=O)CCCCC[C@H](NC(=O)C1CN(C)C1)c1ncc(-c2cc3ccccc3[nH]c2=O)[nH]1 [Entry 18, (S)-1-methyl-N-(7-(methylamino)-7-oxo-1-(5-(2-oxo-1,2-dihydroquinolin-3-yl)-1H-imidazol-2-yl)heptyl)azetidine-3-carboxamide] | 1000 to 5000 | > 5000
CNC(=O)CCCCC[C@H](NC(=O)c1cncs1)c1ncc(-c2ccc3nc(C(F)(F)F)ccc3c2)[nH]1 [Entry 19, (S)-N-(7-(methylamino)-7-oxo-1-(5-(2-(trifluoro-methyl)quinolin-6-yl)-1H-imidazol-2-yl)heptyl)thiazole-5-carboxamide] | 1000 to 5000 | 1000 to 5000
CNC(=O)CCCCC[C@H](NC(=O)Cn1nnc(N2CCCC2)n1)c1ncc(-c2ccc3ccccc3c2)[nH]1 [Entry 20] | < 1000 | 1000 to 5000
CNC(=O)CCCCC[C@H](NC(=O)Cc1ccccc1)c1ncc(-c2ccc3ccccc3c2)[nH]1 [Entry 21] | < 1000 | 1000 to 5000
CNC(=O)CCCCC[C@H](NC(=O)[C@H]1CCN(C)C1)c1ncc(-c2ccc3ccccc3c2)[nH]1 [Entry 149, (S)-1-methyl-N-((S)-7-(methylamino)-1-(5-(naphthalen-2-yl)-1H-imidazol-2-yl)-7-oxo-heptyl)pyrrolidine-3-carboxamide] | 1000 to 5000 | –

Next, values leading:

IC50 [1] [nM] | EC50 [2] [nM] | SMILES
1000 to 5000 | 1000 to 5000 | CNC(=O)CCCCC[C@H](NC(=O)CN1CCCCC1)c1ncc(-c2ccc3ccccc3c2)[nH]1 [Entry 1]
1000 to 5000 | 1000 to 5000 | CNC(=O)CCCCC[C@H](NC(=O)c1ccnc2c1CCCN2)c1ncc(-c2ccc3ccccc3c2)[nH]1 [Entry 2, (S)-N-(7-(methylamino)-1-(5-(naphthalen-2-yl)-1H-imidazol-2-yl)-7-oxoheptyl)-5,6,7,8-tetrahydro-1,8-naphthyridine-4-carboxamide]
< 1000 | < 1000 | CNC(=O)CCCCC[C@H](NS(=O)(=O)c1cccc([N+](=O)[O-])c1)c1ncc(-c2ccc3ccccc3c2)[nH]1 [Entry 3]
< 1000 | 1000 to 5000 | CNC(=O)CCCCC[C@H](NC(=O)[C@H]1CCN(C)C1)c1ncc(-c2ccc3ccccc3c2)[nH]1 [Entry 4, (S)-1-methyl-N-((S)-7-(methylamino)-1-(5-(naphthalen-2-yl)-1H-imidazol-2-yl)-7-oxo-heptyl)pyrrolidine-3-carboxamide]
< 1000 | 1000 to 5000 | CNC(=O)CCCCC[C@H](NC(=O)C1CCN(C)CC1)c1ncc(-c2ccc3ccccc3c2)[nH]1 [Entry 5, (S)-1-methyl-N-(7-(methylamino)-1-(5-(naphthalen-2-yl)-1H-imidazol-2-yl)-7-oxo-heptyl)piperidine-4-carboxamide]
1000 to 5000 | 1000 to 5000 | CNC(=O)CCCCC[C@H](NC(=O)Cn1ccnn1)c1ncc(-c2cc3ccccc3nc2OC)[nH]1 [Entry 6, (S)-7-(2-(1H-1,2,3-triazol-1-yl)acetamido)-7-(5-(2-methoxyquinolin-3-yl)-1H-imidazol-2-yl)-N-methylheptanamide]
< 1000 | 1000 to 5000 | CNC(=O)CCCCC[C@H](NC(=O)Cn1nnc2ccccc21)c1ncc(-c2cc3ccccc3nc2OC)[nH]1 [Entry 7]
1000 to 5000 | < 1000 | CNC(=O)CCCCC[C@H](NC(=O)c1ccns1)c1ncc(-c2ccc(-c3ccn(C)n3)cc2)[nH]1 [Entry 16, (S)-N-(1-(5-(4-(1-methyl-1H-pyrazol-3-yl)phenyl)-1H-imidazol-2-yl)-7-(methylamino)-7-oxoheptyl)isothiazole-5-carboxamide]
1000 to 5000 | < 1000 | CNC(=O)CCCCC[C@H](NC(=O)c1cnc(C)s1)c1ncc(-c2ccc(-c3ccn(C)n3)cc2)[nH]1 [Entry 17, (S)-2-methyl-N-(1-(5-(4-(1-methyl-1H-pyrazol-3-yl)phenyl)-1H-imidazol-2-yl)-7-(methylamino)-7-oxoheptyl)thiazole-5-carboxamide]
– | < 1000 | COc1ccc2[nH]c(C)c(CC(=O)N[C@@H](CCCCCC(N)=O)c3ncc(-c4ccc5ccccc5c4)[nH]3)c2c1 [Entry 96, (S)-7-(2-(5-methoxy-2-methyl-1H-indol-3-yl)acetamido)-7-(5-(naphthalen-2-yl)-1H-imidazol-2-yl)heptanamide]
– | < 1000 | CNC(=O)CCCCC[C@H](NC(=O)c1cncs1)c1ncc(-c2cc3ccccc3nc2OC)[nH]1 [Entry 178, (S)-N-(1-(5-(2-methoxyquinolin-3-yl)-1H-imidazol-2-yl)-7-(methylamino)-7-oxoheptyl)thiazole-5-carboxamide]
